“And” between values parts separate entries of the source, which are not always exact repeats. Equal entries are not always repeated. Where two headings read alike, the source gives them in different places.
Experiments:
[1] = system: MCF-7 human breast adenocarcinoma cells; experiment: MTT cytotoxicity assay, MCF-7 cells; format: cell-based; details: for IC50: MTT
Protocol: (§1) For cytotoxicity experiments, cancer cells were seeded at a density of 5,000 (MCF-7), 10,000 (HL-60) or 2,000 cells/well (HCT116 and A549) in 96-well plates (TPP) for 24 h/37°C prior to the addition of examined agents. The non-cancerous cells, 3T3 and H9c2 cells, were cultured for 24 h/37°C in 96-well plates at a density of 10,000 cells/well, the medium was then changed to serum- and pyruvate-free DMEM (Sigma-Aldrich) and incubated with the cells for another 24 h/37°C. The cytotoxic effects of Bp4eT and its metabolites were studied at different concentrations after a 72 h/37°C incubation. In order to aid the dissolution of the lipophilic ligands, 0.1% dimethyl sulfoxide (v/v) (DMSO; Sigma-Aldrich) was present in the culture medium of all groups. At this concentration, DMSO had no effect on cellular proliferation or viability.
(§2) The viability of cells were determined using an MTT assay (Sigma-Aldrich) according to previously established methods. The optical density of soluble MTT was measured at λ = 570 nm, subtracting the λ = 690 nm background using a Tecan Infinite 200M plate reader (Tecan Group, Männedorf, Switzerland). The viability or proliferation of experimental groups was expressed as a percentage of the untreated controls (100%).
(§3) SigmaStat for Windows 3.5 (Systat Software, San Jose, CA, USA) statistical software package was utilized to analyze results. The data are expressed as the mean ± SD of a given number of experiments. Statistical significance was determined using a one-way ANOVA with a Bonferroni post-hoc test or Student’s t-test. The results were considered to be statistically significant when p < 0.05. The IC50 values were calculated using CalcuSyn 2.0 software (Biosoft, Cambridge, UK). Cell cycle analysis was evaluated using MultiCycle AV Software (Phoenix Flow Systems, San Diego, CA, USA).

[2] = system: MCF-7 cells prelabeled with 59Fe2-transferrin; experiment: Mobilization (efflux) of cellular 59Fe; format: cell-based, human; parameters: Efflux 59Fe / Efflux 59Fe, Ave: unit not given here
Description: Human transferrin (Sigma) was labeled with ^56Fe or ^59Fe (PerkinElmer, Massachusetts, USA) to produce ^56Fe2-transferrin or ^59Fe2-transferrin (^59Fe2-Tf), respectively, with a final specific activity of 500 pCi/pmol Fe, as previously described. Unbound ^59Fe was removed by exhaustive vacuum dialysis against a large excess of 0.15 M NaCl buffered to pH 7.4 with 1.4% NaHCO3 by standard methods.
To examine the ability of studied compounds to mobilize cellular ^59Fe from MCF-7 cells, iron efflux experiments were performed using established techniques. In brief, after pre-labeling confluent MCF-7 cells on 6-well plates with 0.75 μM ^59Fe2-Tf for 3 h/37°C, the cells were washed four times with ice-cold PBS and then subsequently incubated with 25 μM of Bp4eT or its metabolites for 3 h/37°C. The overlying medium containing released ^59Fe was then decanted from the cells. Radioactivity was measured in both the cells and the supernatant using a γ-scintillation counter (Wallac Wizard 3, Turku, Finland).

H9c2 cardiomyoblasts = experiment: MTT cytotoxicity assay, H9c2 cells; format: cell-based, rat; details: for IC50: MTT, read-out: IC50
Protocol: as §1, §2, §3

caspase 9 = experiment: Caspase activity, luminescent kit, caspase 9; format: cell-based, human; details: for Caspase 9 activity, % of the control: 100 nM, MCF-7, corrected for viability; for kaspáza 9, průměry (means of raw signal): mean of 4 experiments; for kaspáza 9, raw signal / kaspáza 9, signal / viabilita: individual experiments by date
Protocol: To assess the effect of the compounds on caspase activity, MCF-7 cells were incubated with 100 nM Bp4eT or its metabolites for 3, 24 or 72 h/37°C in 96-well plates, as described above. The cells were then lysed by adding 100 μL of cold lysis buffer (100 mM HEPES, 10 mM CHAPS, 10 mM D-L-dithiothreitol, pH 7.4) to 100 μL of medium in each well. Lysates were immediately frozen at -80°C. Thawed lysates were used to assess caspase activity using luminescent kits for caspases 3/7, 8 and 9 (Promega, Madison, WI, USA). The luminescence was measured using the Tecan Infinite 200M plate reader. Caspase activity in the experimental groups was corrected according to the cellular viability of each group and expressed as a percentage of activity of the untreated control (100%).

Compound: CCNC(=S)NN=C(c1ccccc1)c1ccccn1 [Bp4eT, 2-benzoylpyridine 4-ethyl-3-thiosemicarbazone]
- MCF-7 proliferation, % of the control ([1]; 0.1 μM, 72 h): 27%
- Therapeutic index, IC50 non-cancerous cells / IC50 neoplastic cells ([1]; 3T3/MCF-7): 87.3
- Therapeutic index, IC50 non-cancerous cells / IC50 neoplastic cells ([1]; H9c2/MCF-7): 34.9
- IC50 ([1]; Homo sapiens, MCF7, 72 h, MCF-7, 72 h/37°C, mean ± SD, n ≥ 4, read-out: IC50): 15 ± 2 nM
- IC50 ([1]; Homo sapiens, MCF7, MCF-7, 5 000 b/j, průměr (mean), read-out: IC50 měřené): 14.6 nM
- IC50 ([1]; Homo sapiens, MCF7, MCF-7, 5 000 b/j, single experiment (date), read-out: IC50 měřené): 14.6 nM
- MTT, relative to control (0 = 100) ([1]; MCF-7, 5 000 b/j, 0.1 nM, průměr (mean)): 96.38
- MTT, relative to control (0 = 100) ([1]; MCF-7, 5 000 b/j, 0.1 nM, single experiment (date)): 88.7924 and 103.938 and 95.2002 and 101.937 and 92.0538
- MTT, relative to control (0 = 100) ([1]; MCF-7, 5 000 b/j, 0.3 nM, průměr (mean)): 88.87
- MTT, relative to control (0 = 100) ([1]; MCF-7, 5 000 b/j, 0.3 nM, single experiment (date)): 99.7305 and 86.2923 and 86.9644 and 82.4877
- MTT, relative to control (0 = 100) ([1]; MCF-7, 5 000 b/j, 1 nM, průměr (mean)): 87.17
- MTT, relative to control (0 = 100) ([1]; MCF-7, 5 000 b/j, 1 nM, single experiment (date)): 87.1761 and 96.2311 and 86.4816 and 83.9319 and 82.0349
- MTT, relative to control (0 = 100) ([1]; MCF-7, 5 000 b/j, 3 nM, průměr (mean)): 84.98
- MTT, relative to control (0 = 100) ([1]; MCF-7, 5 000 b/j, 3 nM, single experiment (date)): 92.03 and 87.788 and 84.0816 and 76.0316
- MTT, relative to control (0 = 100) ([1]; MCF-7, 5 000 b/j, 10 nM, průměr (mean)): 59.89
- MTT, relative to control (0 = 100) ([1]; MCF-7, 5 000 b/j, 10 nM, single experiment (date)): 58.817 and 55.8764 and 63.7331 and 67.2949 and 53.713
- MTT, relative to control (0 = 100) ([1]; MCF-7, 5 000 b/j, 30 nM, průměr (mean)): 30.78
- MTT, relative to control (0 = 100) ([1]; MCF-7, 5 000 b/j, 30 nM, single experiment (date)): 29.4154 and 32.9782 and 31.8134 and 28.9002
- MTT, relative to control (0 = 100) ([1]; MCF-7, 5 000 b/j, 100 nM, průměr (mean)): 27.09
- MTT, relative to control (0 = 100) ([1]; MCF-7, 5 000 b/j, 100 nM, single experiment (date)): 33.1607 and 22.627 and 26.6274 and 27.398 and 25.6334
- IC50 ([1]; MCF-7, 5 000 b/j, single experiment (date), read-out: IC50 měřené): 16.3 nM and 16.2 nM and 11.2 nM
- Release of cellular 59Fe, % of total cellular 59Fe ([2]; 25 μM, 3 h/37°C, MCF-7): 46.4%
- Efflux 59Fe, Ave ([2]; average of all replicates): 46.4439
- Efflux 59Fe ([2]; single replicate (three per date)): 48.2798 and 45.5975 and 45.2039 and 47.6936 and 45.8687 and 45.6484 and 48.9726 and 45.6298 and 45.1012
- MTT, relative to control (0 = 100) (H9c2 cardiomyoblasts; H9c2, 10 000 b/j, 3 nM, průměr (mean)): 99.21
- MTT, relative to control (0 = 100) (H9c2 cardiomyoblasts; H9c2, 10 000 b/j, 3 nM, single experiment (date)): 102.894 and 97.5415 and 98.1925 and 99.1728 and 98.234
- MTT, relative to control (0 = 100) (H9c2 cardiomyoblasts; H9c2, 10 000 b/j, 10 nM, průměr (mean)): 97.95
- MTT, relative to control (0 = 100) (H9c2 cardiomyoblasts; H9c2, 10 000 b/j, 10 nM, single experiment (date)): 93.4128 and 99.1411 and 98.6466 and 98.7917 and 99.7545
- MTT, relative to control (0 = 100) (H9c2 cardiomyoblasts; H9c2, 10 000 b/j, 30 nM, průměr (mean)): 93.46
- MTT, relative to control (0 = 100) (H9c2 cardiomyoblasts; H9c2, 10 000 b/j, 30 nM, single experiment (date)): 89.8997 and 94.1191 and 90.5168 and 97.6473 and 95.1275
- MTT, relative to control (0 = 100) (H9c2 cardiomyoblasts; H9c2, 10 000 b/j, 100 nM, průměr (mean)): 83.34
- MTT, relative to control (0 = 100) (H9c2 cardiomyoblasts; H9c2, 10 000 b/j, 100 nM, single experiment (date)): 88.1519 and 73.0922 and 83.4003 and 88.2 and 83.8639
- MTT, relative to control (0 = 100) (H9c2 cardiomyoblasts; H9c2, 10 000 b/j, 300 nM, průměr (mean)): 64.46
- MTT, relative to control (0 = 100) (H9c2 cardiomyoblasts; H9c2, 10 000 b/j, 300 nM, single experiment (date)): 78.5818 and 47.7898 and 54.7281 and 65.2971 and 75.8815
- MTT, relative to control (0 = 100) (H9c2 cardiomyoblasts; H9c2, 10 000 b/j, 1000 nM, průměr (mean)): 35.85
- MTT, relative to control (0 = 100) (H9c2 cardiomyoblasts; H9c2, 10 000 b/j, 1000 nM, single experiment (date)): 36.8685 and 33.593 and 34.7888 and 38.1329
- MTT, relative to control (0 = 100) (H9c2 cardiomyoblasts; H9c2, 10 000 b/j, 3000 nM, průměr (mean)): 31.03
- MTT, relative to control (0 = 100) (H9c2 cardiomyoblasts; H9c2, 10 000 b/j, 3000 nM, single experiment (date)): 33.7493 and 30.5962 and 27.1956 and 32.5967
- IC50 (H9c2 cardiomyoblasts; H9c2, 10 000 b/j, single experiment (date)): 360 nM and 438 nM and 587 nM
- IC50 (H9c2 cardiomyoblasts; Rattus norvegicus, H9c2, 72 h, H9c2, 72 h/37°C, mean ± SD, n ≥ 4): 524 ± 157 nM
- IC50 (H9c2 cardiomyoblasts; Rattus norvegicus, H9c2, H9c2, 10 000 b/j, průměr (mean)): 524 nM
- IC50 (H9c2 cardiomyoblasts; Rattus norvegicus, H9c2, H9c2, 10 000 b/j, single experiment (date)): 713 nM
- Caspase 9 activity, % of the control (caspase 9; 24 h): 125%
- Caspase 9 activity, % of the control (caspase 9; 72 h): 249%
- kaspáza 9, % kontroly (caspase 9; 3 hodiny (3 h), % of control): 104.85%
- kaspáza 9, průměry (means of raw signal) (caspase 9; 3 hodiny (3 h)): 3805.38
- kaspáza 9, raw signal (caspase 9; 3 hodiny): 6578.5 and 2900.5 and 3521 and 2221.5
- kaspáza 9, raw signal, průměry (caspase 9; 3 hodiny, mean): 3805.38
- kaspáza 9, % kontroly (caspase 9; 3 hodiny, mean, normalised to viability): 111.23 % kontroly
- kaspáza 9, signal / viabilita (caspase 9; 3 hodiny, normalised to viability): 68.2861 and 30.1078 and 36.5487 and 23.0596
- kaspáza 9, signal / viabilita, průměry (caspase 9; 3 hodiny, normalised to viability, mean): 39.5005
- kaspáza 9, % kontroly (caspase 9; 24 hodin (24 h), % of control): 66.84%
- kaspáza 9, průměry (means of raw signal) (caspase 9; 24 hodin (24 h)): 2704
- kaspáza 9, raw signal (caspase 9; 24 hodin): 3466.5 and 1743.5 and 3244.5 and 2361.5
- kaspáza 9, raw signal, průměry (caspase 9; 24 hodin, mean): 2704
- kaspáza 9, % kontroly (caspase 9; 24 hodin, mean, normalised to viability): 124.96 % kontroly
- kaspáza 9, signal / viabilita (caspase 9; 24 hodin, normalised to viability): 65.5914 and 32.9897 and 61.3908 and 44.6831
- kaspáza 9, signal / viabilita, průměry (caspase 9; 24 hodin, normalised to viability, mean): 51.1638
- kaspáza 9, % kontroly (caspase 9; 72 hodin (72 h), % of control): 66.22%
- kaspáza 9, průměry (means of raw signal) (caspase 9; 72 hodin (72 h)): 14621.1
- kaspáza 9, raw signal (caspase 9; 72 hodin): 22930.5 and 14080 and 11064.5 and 10409.5
- kaspáza 9, raw signal, průměry (caspase 9; 72 hodin, mean): 14621.1
- kaspáza 9, % kontroly (caspase 9; 72 hodin, mean, normalised to viability): 249.26 % kontroly
- kaspáza 9, signal / viabilita (caspase 9; 72 hodin, normalised to viability): 846.456 and 519.749 and 408.435 and 384.256
- kaspáza 9, signal / viabilita, průměry (caspase 9; 72 hodin, normalised to viability, mean): 539.724

— publication PMC4604124, “In Vitro Characterization of the Pharmacological Properties of the Anti-Cancer Chelator, Bp4eT, and Its Phase I Metabolites” (PLoS ONE, 2015)
